Measurements taken from patent publication US11708348B2, “Protease inhibitors for treatment of coronavirus infections” (The Scripps Research Institute, priority 2021, dated 2023).

The molecules below were run on SARS-CoV-2 strain USA-WA1/2020 (assay: microbe, parasite or virus in culture). Conditions: Severe acute respiratory syndrome coronavirus 2, HeLa-ACE2, 24 h, HeLa-ACE2 cells, SARS-CoV-2 infection, 24 h; bound printed in cell; read-out: EC50, uM (Hela).
Type: cell-based

How did the EC50 turn out when O=C(NC1CCNCC1)C(=O)N[C@@H](CC1CC1)C(=O)N[C@@H](C[C@@H]1CCNC1=O)C(=O)COC(F)(F)F [Compound 232, N1-((S)-3-cyclopropyl-1-oxo-1-(((S)-3-oxo-1-((S)-2-oxopyrrolidin-3-yl)-4-(trifluoromethoxy)butan-2-yl)amino)propan-2-yl)-N2-(piperidin-4-yl)oxalamide] was run?
Its EC50 is over 1 µM.

Same assay, conditions: Severe acute respiratory syndrome coronavirus 2, HeLa-ACE2, 24 h, HeLa-ACE2 cells, SARS-CoV-2 infection, 24 h; cells given as a bound; read-out: EC50, uM (Hela)

With CC(C)C[C@H](NC(=O)C(=O)Nc1ccccc1F)C(=O)N[C@@H](C[C@@H]1CCNC1=O)C(=O)COC(C(F)F)C(F)F [Compound 175, N1-(2-fluorophenyl)-N2-((S)-4-methyl-1-oxo-1-(((S)-3-oxo-1-((S)-2-oxopyrrolidin-3-yl)-4-((1,1,3,3-tetrafluoropropan-2-yl)oxy)butan-2-yl)amino)pentan-2-yl)oxalamide] as the molecule, how does the EC50 read?
The EC50 was over 1 µM.

Same assay, conditions: Severe acute respiratory syndrome coronavirus 2, HeLa-ACE2, 24 h, HeLa-ACE2 cells, SARS-CoV-2 infection, 24 h; class symbols; read-out: EC50, uM (Hela)

With CC(C)C[C@H](NC(=O)C(=O)Nc1ccc(F)c(F)c1)C(=O)N[C@@H](C[C@@H]1CCNC1=O)C(=O)COc1c(F)c(F)cc(F)c1F [Compound 53, N1-(3,4-difluorophenyl)-N2-((S)-4-methyl-1-oxo-1-(((S)-3-oxo-1-((S)-2-oxopyrrolidin-3-yl)-4-(2,3,5,6-tetrafluorophenoxy)butan-2-yl)amino)pentan-2-yl)oxalamide] as the molecule, how does the EC50 read?
The EC50 was 0.05 to 0.2 µM.

How did the EC50 turn out when CC(C)C[C@H](NC(=O)OCC1CCCC1)C(=O)N[C@@H](C[C@@H]1CCNC1=O)C(=O)COc1c(F)c(F)cc(F)c1F [Compound 137, cyclopentylmethyl ((S)-4-methyl-1-oxo-1-(((S)-3-oxo-1-((S)-2-oxopyrrolidin-3-yl)-4-(2,3,5,6-tetrafluorophenoxy)butan-2-yl)amino)pentan-2-yl)carbamate] was run?
The EC50 was 0.5 to 1 µM.

With CC(C)C[C@H](NC(=O)C(=O)Nc1cccnc1C(F)(F)F)C(=O)N[C@@H](C[C@@H]1CCNC1=O)C(=O)COc1c(F)c(F)cc(F)c1F [Compound 48, N1-((S)-4-methyl-1-oxo-1-(((S)-3-oxo-1-((S)-2-oxopyrrolidin-3-yl)-4-(2,3,5,6-tetrafluorophenoxy)butan-2-yl)amino)pentan-2-yl)-N2-(2-(trifluoromethyl)-pyridin-3-yl)oxalamide] as the molecule, how does the EC50 read?
Its EC50 is under 0.05 µM.

With O=C1NCC[C@H]1C[C@H](NC(=O)[C@@H]1[C@H]2CCC[C@H]2CN1C(=O)C1CC2(CC2)CO1)C(=O)COC(F)(F)F (stereo partly drawn) [Compound 295, (1S,3aR,6aS)-N-((S)-3-oxo-1-((S)-2-oxopyrrolidin-3-yl)-4-(trifluoromethoxy)butan-2-yl)-2-(5-oxaspiro[2.4]heptane-6-carbonyl)octahydro-cyclopenta[c]pyrrole-1-carboxamide] as the molecule, how does the EC50 read?
The EC50 was 0.05 to 0.2 µM.

Which EC50 does the source give for CC(C)C[C@H](NC(=O)C12CCC(CC1)O2)C(=O)N[C@@H](C[C@@H]1CCNC1=O)C(=O)COC(F)(F)F [Compound 309, N-((S)-4-methyl-1-oxo-1-(((S)-3-oxo-1-((S)-2-oxopyrrolidin-3-yl)-4-(trifluoromethoxy)butan-2-yl)amino)pentan-2-yl)-7-oxabicyclo [2.2.1]-heptane-1-carboxamide] here?
Its EC50 is under 0.05 µM.

Which EC50 does the source give for CC(C)C[C@H](NC(=O)c1ccc2c(c1)OCO2)C(=O)N[C@@H](C[C@@H]1CCNC1=O)C(=O)COc1c(F)c(F)cc(F)c1F [Compound 24, N-((S)-4-methyl-1-oxo-1-(((S)-3-oxo-1-((S)-2-oxopyrrolidin-3-yl)-4-(2,3,5,6-tetrafluorophenoxy)butan-2-yl)amino)pentan-2-yl)benzo[d][l,3]dioxole-5-carboxamide] here?
Its EC50 is 0.2 to 0.5 µM.

For CC(C)C[C@H](NC(=O)c1cc2ccncc2[nH]1)C(=O)N[C@@H](C[C@@H]1CCNC1=O)C(=O)COC(F)(F)F [Compound 187, N-((S)-4-methyl-1-oxo-1-(((S)-3-oxo-1-((S)-2-oxopyrrolidin-3-yl)-4-(trifluoromethoxy)butan-2-yl)amino)pentan-2-yl)-1H-pyrrolo[2,3-c]pyridine-2-carboxamide], which EC50 is on record?
Its EC50 is 0.05 to 0.2 µM.

Which EC50 does the source give for O=C1NCC[C@H]1C[C@H](NC(=O)[C@@H]1[C@H]2CCC[C@H]2CN1C(=O)C12CC(C(F)(F)F)(CO1)C2)C(=O)COC(F)(F)F [Compound 315, (1S,3aR,6aS)-N-((S)-3-oxo-1-((S)-2-oxopyrrolidin-3-yl)-4-(trifluoromethoxy)butan-2-yl)-2-(4-(trifluoromethyl)-2-oxabicyclo[2.1.1]-hexane-1-carbonyl)-octahydrocyclopenta-[c]pyrrole-1-carboxamide] here?
The EC50 was under 0.05 µM.

CC(C)(C)[C@H](NC(=O)[C@H]1CCCO1)C(=O)N1C[C@H]2[C@@H]([C@H]1C(=O)N[C@@H](C[C@@H]1CCNC1=O)C(=O)COC(F)(F)F)C2(C)C [Compound 290, (1R,2S,5S)-3-((S)-3,3-dimethyl-2-((R)-tetrahydrofuran-2-carboxamido)-butanoyl)-6,6-dimethyl-N-((S)-3-oxo-1-((S)-2-oxopyrrolidin-3-yl)-4-(trifluoromethoxy)butan-2-yl)-3-azabicyclo-[3.1.0]hexane-2-carboxamide] was tested. Which EC50 did it give?
The EC50 was 0.2 to 0.5 µM.

Same assay, conditions: Severe acute respiratory syndrome coronavirus 2, HeLa-ACE2, 24 h, HeLa-ACE2 cells, SARS-CoV-2 infection, 24 h; read-out: EC50, uM (Hela)

CC(C)(C)C[C@H](NC(=O)C(=O)NCC(F)(F)F)C(=O)N[C@@H](C[C@@H]1CCNC1=O)C(=O)COC(F)(F)F [Compound 505, N1-((S)-4,4-dimethyl-1-oxo-1-(((S)-3-oxo-1-((S)-2-oxopyrrolidin-3-yl)-4-(trifluoromethoxy)butan-2-yl)amino)pentan-2-yl)-N2-(2,2,2-trifluoroethyl)-oxalamide] was tested. Which EC50 did it give?
The EC50 was under 0.05 µM.

For CC(C)C[C@H](NC(=O)C1CC2(CC2)CO1)C(=O)N[C@@H](C[C@@H]1CCNC1=O)C(=O)COC(F)(F)F (stereo partly drawn) [Compound 789, N-((S)-4-methyl-1-oxo-1-(((S)-3-oxo-1-((S)-2-oxopyrrolidin-3-yl)-4-(trifluoromethoxy)butan-2-yl)amino)pentan-2-yl)-5-oxaspiro[2.4]heptane-6-carboxamide], which EC50 is on record?
Its EC50 is under 0.05 µM.

With O=C(Nc1ccccc1OC(F)(F)F)C(=O)N1CC2(CC2)C[C@H]1C(=O)N[C@@H](C[C@@H]1CCNC1=O)C(=O)COC(F)(F)F [Compound 610, (S)-N-((S)-3-oxo-1-((S)-2-oxopyrrolidin-3-yl)-4-(trifluoromethoxy)butan-2-yl)-5-(2-oxo-2-((2-(trifluoromethoxy)phenyl)amino)acetyl)-5-azaspiro[2.4]heptane-6-carboxamide] as the molecule, how does the EC50 read?
The EC50 was under 0.05 µM.

For CC(C)(C)c1ccccc1NC(=O)C(=O)N1C[C@@H]2CCC[C@@H]2[C@H]1C(=O)N[C@@H](C[C@@H]1CCNC1=O)C(=O)COC(F)(F)F [Compound 615, (1S,3aR,6aS)-2-(2-((2-(tert-butyl)phenyl)amino)-2-oxoacetyl)-N-((S)-3-oxo-1-((S)-2-oxopyrrolidin-3-yl)-4-(trifluoromethoxy)butan-2-yl)octahydrocyclopenta[c]pyrrole-1-carboxamide], which EC50 is on record?
The EC50 was under 0.05 µM.

CC(C)[C@@H](O)CC(=O)N1CC2(CC2)C[C@H]1C(=O)N[C@@H](C[C@@H]1CCNC1=O)C(=O)COC(F)(F)F [Compound 432, (S)-5-((S)-3-hydroxy-4-methylpentanoyl)-N-((S)-3-oxo-1-((S)-2-oxopyrrolidin-3-yl)-4-(trifluoromethoxy)butan-2-yl)-5-azaspiro[2.4]heptane-6-carboxamide] was tested. Which EC50 did it give?
Its EC50 is 0.05 to 0.2 µM.

[2H]C([2H])([2H])C([2H])([2H])CCCC(=O)N1CC2(CC2)C[C@H]1C(=O)N[C@@H](C[C@@H]1CCNC1=O)C(=O)COC(F)(F)F [Compound 755, (S)-5-(hexanoyl-5,5,6,6,6-d5)-N-((S)-3-oxo-1-((S)-2-oxopyrrolidin-3-yl)-4-(trifluoromethoxy)butan-2-yl)-5-azaspiro[2.4]heptane-6-carboxamide] was tested. Which EC50 did it give?
The EC50 was under 0.05 µM.

Which EC50 does the source give for CCNC(=O)C(=O)N1CC2(CC2)C[C@H]1C(=O)N[C@@H](C[C@@H]1CCNC1=O)C(=O)COC(F)(F)F [Compound 749, (S)-5-(2-(ethylamino)-2-oxoacetyl)-N-((S)-3-oxo-1-((S)-2-oxopyrrolidin-3-yl)-4-(trifluoromethoxy)butan-2-yl)-5-azaspiro[2.4]heptane-6-carboxamide] here?
Its EC50 is 0.05 to 0.2 µM.

O=C1NCC[C@H]1C[C@H](NC(=O)[C@@H]1[C@H]2CCC[C@H]2CN1C(=O)c1noc2ccc(Cl)cc12)C(=O)COC(F)(F)F [Compound 659, (1S,3aR,6aS)-2-(5-chlorobenzo[d]isoxazole-3-carbonyl)-N-((S)-3-oxo-1-((S)-2-oxopyrrolidin-3-yl)-4-(trifluoromethoxy)butan-2-yl)octahydrocyclopenta[c]pyrrole-1-carboxamide] was tested. Which EC50 did it give?
Its EC50 is under 0.05 µM.

Which EC50 does the source give for CC(C)C[C@@H](O)C(=O)N1C[C@H](C)C[C@H]1C(=O)N[C@@H](C[C@@H]1CCNC1=O)C(=O)COC(F)(F)F [Compound 753, (2S,4R)-1-((R)-2-hydroxy-4-methylpentanoyl)-4-methyl-N-((S)-3-oxo-1-((S)-2-oxopyrrolidin-3-yl)-4-(trifluoromethoxy)butan-2-yl)pyrrolidine-2-carboxamide] here?
Its EC50 is under 0.05 µM.

CC(C)(C(=O)N1CC2(CC2)C[C@H]1C(=O)N[C@@H](C[C@@H]1CCNC1=O)C(=O)COC(F)(F)F)c1ccccc1 [Compound 619, (S)-5-(2-methyl-2-phenylpropanoyl)-N-((S)-3-oxo-1-((S)-2-oxopyrrolidin-3-yl)-4-(trifluoromethoxy)butan-2-yl)-5-azaspiro[2.4]heptane-6-carboxamide] was tested. Which EC50 did it give?
Its EC50 is under 0.05 µM.

How did the EC50 turn out when O=C(NC1(C(F)(F)F)CC1)C(=O)N1C[C@@H]2CCC[C@@H]2[C@H]1C(=O)N[C@@H](C[C@@H]1CCNC1=O)C(=O)COC(F)(F)F [Compound 656, (1S,3aR,6aS)-N-((S)-3-oxo-1-((S)-2-oxopyrrolidin-3-yl)-4-(trifluoromethoxy)butan-2-yl)-2-(2-oxo-2-((1-(trifluoromethyl)cyclopropyl)amino)-acetyl)octahydrocyclopenta[c]pyrrole-1-carboxamide] was run?
Its EC50 is 0.05 to 0.2 µM.
